Laboratory results: ChEMBL document CHEMBL1201862, “PubChem BioAssay data set” (2004)
Activity calls are given as the source filed them.

Legend:
[1] = nonselective StAR promoter luciferase inhibitors – cell-based, luminescence, luciferase reporter, counter-screen for LRH-1 inverse agonist project, dose response (AID 651969); type: functional
[2] = target: Nuclear receptor subfamily 5 group A member 2 (Homo sapiens, UniProt O00482); type: functional, cell-based;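 note: HEK293T cells transfected with LRH-1 and a StAR promoter luciferase reporter; potency for inhibitors that lower LRH-1 driven reporter light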
[3] = target: Steroidogenic factor 1 (Homo sapiens, UniProt Q13285); test: Counterscreen for inverse agonists of the liver receptor homolog-1 (LRH-1; NR5A2): Luminescence-based cell-based high throughput dose response assay to identify inverse agonists of the Steroidogenic Factor 1 Nuclear Receptor (SF1; NR5A1).; type: functional
[4] = target: Fructose-bisphosphate aldolase (Mycobacterium tuberculosis, UniProt P9WQA3); test: Fluorescence-based biochemical high throughput dose response assay for inhibitors of the fructose-bisphosphate aldolase (FBA) of M. tuberculosis.; type: functional
[5] = target: T1, High affinity choline transporter 1 (Homo sapiens, UniProt Q9GZV3); test: human choline transporter blockers, potency – cell-based, 10-point CRC, membrane potential dye, dose response (AID 588401); type: functional;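 note: membrane potential dye fluorescence of choline-evoked depolarization via CHT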
T1 sequence (Q9GZV3 whole entry): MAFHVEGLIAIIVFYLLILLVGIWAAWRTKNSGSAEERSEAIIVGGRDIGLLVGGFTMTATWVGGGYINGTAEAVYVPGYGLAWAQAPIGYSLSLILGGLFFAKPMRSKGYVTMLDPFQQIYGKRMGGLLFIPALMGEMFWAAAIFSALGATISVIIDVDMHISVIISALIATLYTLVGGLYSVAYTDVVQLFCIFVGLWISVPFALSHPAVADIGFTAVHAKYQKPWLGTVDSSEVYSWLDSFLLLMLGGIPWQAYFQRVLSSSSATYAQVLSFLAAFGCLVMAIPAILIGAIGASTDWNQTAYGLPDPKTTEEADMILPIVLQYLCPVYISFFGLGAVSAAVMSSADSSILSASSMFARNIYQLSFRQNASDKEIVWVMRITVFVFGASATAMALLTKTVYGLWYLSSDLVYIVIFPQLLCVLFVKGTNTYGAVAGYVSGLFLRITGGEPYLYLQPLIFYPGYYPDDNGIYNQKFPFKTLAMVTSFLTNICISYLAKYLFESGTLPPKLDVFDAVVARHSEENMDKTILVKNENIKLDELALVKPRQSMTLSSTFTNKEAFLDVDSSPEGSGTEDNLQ

[6] = target: T1, High affinity choline transporter 1; test: human choline transporter radiolabel uptake blockers – cell-based, 3H-choline uptake, CHT LV-AA trafficking mutant, CRC, dose response (AID 602208); type: functional
[7] = target: T1, High affinity choline transporter 1; test: human choline transporter blockers, potency – cell-based, 5-point CRC, membrane potential dye, dose response (AID 504840); type: functional
[8] = target: Melanocortin receptor 4 (Homo sapiens, UniProt P32245); type: functional, cell-based;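 note: Cell-based assay with luminescence read-out, confirmatory dose-response testing for agonist activity of biased ligands at MC4R; human U2OS cells with tagged receptor and beta-arrestin; potency of agonists that increase receptor coupling to beta-arrestin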
[9] = viability loss in HEK293 cells – cell-based, plate reader, cherry-picked samples, cytotoxicity control, dose response (AID 743446); type: functional
[10] = target: T2, DNA repair protein RAD52 homolog (Homo sapiens, UniProt P43351); type: functional, biochemical
T2 sequence (P43351 whole entry): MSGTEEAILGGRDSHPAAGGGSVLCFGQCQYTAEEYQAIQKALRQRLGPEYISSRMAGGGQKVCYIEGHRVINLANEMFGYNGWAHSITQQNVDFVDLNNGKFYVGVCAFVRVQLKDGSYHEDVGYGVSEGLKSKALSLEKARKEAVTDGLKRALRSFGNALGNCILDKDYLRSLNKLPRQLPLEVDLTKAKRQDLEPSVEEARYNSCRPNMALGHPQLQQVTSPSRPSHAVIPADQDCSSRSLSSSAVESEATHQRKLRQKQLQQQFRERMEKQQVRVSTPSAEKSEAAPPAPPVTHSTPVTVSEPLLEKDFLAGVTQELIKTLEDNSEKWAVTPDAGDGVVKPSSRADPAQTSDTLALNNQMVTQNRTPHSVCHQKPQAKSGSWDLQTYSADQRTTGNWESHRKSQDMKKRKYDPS

[11] = target: DNA repair and recombination protein RAD54-like (Homo sapiens, UniProt Q92698); test: RAD54 Holliday junction migration blockers – biochemical, fluorescence, cherry-picked samples, dose series, confirmation (AID 651657); type: functional
[12] = blockade of melanocortin 4 receptor signaling – cell-based, plate reader, cherry pick, counter-screen for LGR2 antagonist project, dose response (AID 743444); type: functional;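 note: transfected HEK 293 cells stimulated with alpha-MSH peptide; potency of inhibitors of the alpha-MSH evoked signal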
[13] = A549 cell cytotoxicity, dose response, cytotoxicity control, plate reader, cherry-pick, antagonist series (AID 743412); type: functional, cell-based
[14] = target: T3, Ubiquitin-conjugating enzyme E2 N (Homo sapiens, UniProt P61088); type: functional;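 note: Dose-response confirmation in a TR-FRET assay detecting UBC13-driven polyubiquitin chain formation, inhibition measured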
T3 sequence (P61088 whole entry): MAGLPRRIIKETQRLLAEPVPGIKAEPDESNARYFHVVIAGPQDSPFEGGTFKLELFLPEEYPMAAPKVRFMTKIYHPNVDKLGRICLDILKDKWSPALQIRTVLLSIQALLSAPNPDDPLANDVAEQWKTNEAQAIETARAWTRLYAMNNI

[15] = cytotoxicity toward MDA-MB-231 breast cancer cells – cell-based, CellTiter-Glo luminescence, cherry-pick, cytotoxicity control for RAD54 inhibitor project, dose response (AID 651692); type: functional
[16] = toxicity toward HepG2 liver cells – cell-based, plate reader, cherry-pick, antagonist series, cytotoxicity control, dose response (AID 743416); type: functional
[17] = blockers of bursicon-stimulated LGR2 cAMP reporter – cell-based, HEK293, CRE-luciferase reporter, cherry pick, set 2, dose response (AID 743343); type: functional;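 note: transfected cells were stimulated with diluted bursicon conditioned medium after compound addition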
[18] = bead-based luminescence quenchers, dual-tagged ARNT – biochemical, AlphaScreen, cherry-pick, artefact control for ARNT-TACC3 interaction inhibitor project, dose response (AID 651705); type: functional;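 note: AlphaScreen bead proximity signal that flags compounds interfering with the detection technology; potency reflects signal decrease which marks the compound as an assay artifact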
[19] = test system: HEK293; test: cells; type: functional, cell-based; conditions: Homo sapiens
[20] = test system: HEK293; test: inhibition of NOD1-driven NF-kB reporter – cell-based, luminescence, uHTS, primary screen (AID 1578); type: functional; conditions: Homo sapiens
[21] = reduction of Shn3 3'UTR-driven luciferase in osteoblasts – cell-based, Clone20 osteoblasts, firefly luciferase, cherry-picked, dose response (AID 624132); type: functional;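 note: firefly luciferase luminescence from reporter carrying the Shn3 3'UTR in osteoblasts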
[22] = non-specific 3'UTR reporter inhibition in Clone20-Shn3RL – cell-based, Renilla luciferase, cherry-picked, counter-screen for Shn3 inhibitor project, dose response (AID 624133); type: functional
[23] = target: Protein Wnt-3a (Mus musculus, UniProt P27467); test: antagonism of Wnt3a pathway luciferase reporter – Wnt-LIGHT cells, luminescence, selectivity assay for Gli-SUFU antagonist project, dose response (AID 651570); type: functional; conditions: read-out: IC50_Mean;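 note: Wnt-LIGHT reporter cells stimulated with conditioned medium from Wnt3a-producing cells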
[24] = test system: HEK293; test: cells; type: functional, cell-based; conditions: Homo sapiens; remark: listed apart in the source
[25] = test system: HEK293; test: cells; type: functional, cell-based; conditions: Homo sapiens; remark: listed apart in the source
[26] = loss of viability in HepG2 cells – cell-based, CellTiter-Glo, cherry-picked, cytotoxicity control for Shn3 inhibitor project, dose response (AID 624134); type: functional
[27] = target: Nucleotide-binding oligomerization domain-containing protein 2 (Homo sapiens, UniProt Q9HC29); test: inhibition of NOD2-driven NF-kB reporter – cell-based, luminescence, uHTS, HEK293 (AID 1566); type: functional
[28] = target: Long-chain-fatty-acid--AMP ligase FadD28 (Mycobacterium tuberculosis, UniProt P9WQ59); test: Fluorescence polarization aasay to screen for inhibitors that compete for the binding of FadD28 to a bisubstrate Measured in Biochemical System Using Plate Reader - 2147-01_Inhibitor_Dose_CherryPick_Activity.; type: functional, Mycobacterium tuberculosis H37Rv
[29] = target: Beta Lactamase (Pseudomonas aeruginosa, UniProt Q932Y6); test: BLA reporter interference, concentration series – BLA reporter cells, FRET fluorescence, artefact control for TLR9-MyD88 binding inhibitor project, dose response (AID 588341); type: cell-based;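 note: cell based assay in CHO-K1 cells stably expressing beta-lactamase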
[30] = target: T4, Sentrin-specific protease 8 (Homo sapiens, UniProt Q96LD8); type: functional
T4 sequence (Q96LD8 whole entry): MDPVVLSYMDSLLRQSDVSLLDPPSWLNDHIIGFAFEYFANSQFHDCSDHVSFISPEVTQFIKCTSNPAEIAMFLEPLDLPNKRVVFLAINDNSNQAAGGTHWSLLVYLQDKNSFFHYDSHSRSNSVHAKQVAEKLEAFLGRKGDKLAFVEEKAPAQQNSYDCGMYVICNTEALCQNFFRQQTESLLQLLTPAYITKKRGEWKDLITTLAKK

[31] = test system: CHO; test: CHO cell viability loss, potency – luminescence, cytotoxicity control for TLR9-MyD88 binding inhibitor project, dose response (AID 588339); type: functional, cell-based, hamster; conditions: Cricetulus griseus;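 note: CHO cells stably coexpressing TLR9 and MyD88 fusions from primary screen; compound exposure lasted 48 hours before viability readout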
[32] = target: T4, Sentrin-specific protease 8; type: functional; remark: listed apart in the source
[33] = cells; type: functional, cell-based
[34] = cells; type: functional, cell-based; remark: listed apart in the source
[35] = viability of PTEN-deleted HCT116 cells – cell-based, HCT116 PTEN knockout, dose response (AID 1047); type: functional;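 note: HCT116 colon tumor cells with PTEN knocked out; cells exposed to compound for 60 hours before readout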
[36] = test system: INS1; test: INS-1E survival protection against cytokine death – cell-based, luminescence, retest, dose response (AID 449756); type: functional; conditions: Rattus norvegicus;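 note: cell death triggered by IL-1 beta plus TNF-alpha plus IFN-gamma mixture; protective hits raise ATP signal compared with cytokine alone wells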
[37] = HEK-293T viability loss after treatment – luminescence, T-cell screen hits, cytotoxicity control for TCR NF-kB inhibitor project, dose response (AID 489026); type: functional, cell-based;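 note: cells exposed to compound about 14 hours before the viability readout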
[38] = target: Benomyl/methotrexate resistance protein (Candida albicans, UniProt P28873); test: Candida albicans Mdr1 pump inhibition curves – singleplex, Cherry Pick1 hits, dose response (AID 588608); type: functional
[39] = NIH-3T3 fibroblast cytotoxicity, dose response, cytotoxicity control, cell-based, fluorescence, Alamar Blue, secondary assay (AID 2327); type: functional;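 note: NIH-3T3 mouse fibroblasts cultured with fluconazole at 8 µg/mL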
[40] = viability of HCT116 lacking mutant beta-catenin – cell-based, human colon tumor, dose response (AID 1045); type: functional;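 note: HCT116 colon tumor cells with beta catenin knocked out; cells exposed to compound for 60 hours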

Long-chain-fatty-acid--AMP ligase FadD28, sequence (P9WQ59 whole entry): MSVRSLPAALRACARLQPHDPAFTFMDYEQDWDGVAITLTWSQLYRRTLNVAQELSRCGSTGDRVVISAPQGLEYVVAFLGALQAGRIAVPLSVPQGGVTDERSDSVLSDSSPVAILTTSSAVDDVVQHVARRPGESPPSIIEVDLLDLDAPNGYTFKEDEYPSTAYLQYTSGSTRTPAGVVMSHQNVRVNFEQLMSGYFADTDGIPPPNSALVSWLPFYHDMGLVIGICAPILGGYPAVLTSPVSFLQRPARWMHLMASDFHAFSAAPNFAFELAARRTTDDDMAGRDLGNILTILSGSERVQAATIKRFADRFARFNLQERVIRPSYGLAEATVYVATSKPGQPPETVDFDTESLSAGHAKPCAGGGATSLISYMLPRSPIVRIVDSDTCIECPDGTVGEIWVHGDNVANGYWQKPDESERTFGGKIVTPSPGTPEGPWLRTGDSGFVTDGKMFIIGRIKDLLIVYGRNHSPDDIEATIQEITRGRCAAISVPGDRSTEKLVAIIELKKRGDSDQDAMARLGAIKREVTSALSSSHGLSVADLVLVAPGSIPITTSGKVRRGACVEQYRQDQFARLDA
Protein Wnt-3a, sequence (P27467 whole entry): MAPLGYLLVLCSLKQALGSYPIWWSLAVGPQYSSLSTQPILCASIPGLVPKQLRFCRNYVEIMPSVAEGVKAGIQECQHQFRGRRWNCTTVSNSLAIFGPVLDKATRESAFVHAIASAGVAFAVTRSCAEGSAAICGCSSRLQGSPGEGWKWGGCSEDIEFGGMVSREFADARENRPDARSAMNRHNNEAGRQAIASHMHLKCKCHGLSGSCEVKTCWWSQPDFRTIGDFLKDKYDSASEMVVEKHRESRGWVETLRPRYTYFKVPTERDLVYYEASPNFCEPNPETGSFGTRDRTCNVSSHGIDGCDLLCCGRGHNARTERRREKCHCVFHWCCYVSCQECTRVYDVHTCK
Melanocortin receptor 4, sequence (P32245 whole entry): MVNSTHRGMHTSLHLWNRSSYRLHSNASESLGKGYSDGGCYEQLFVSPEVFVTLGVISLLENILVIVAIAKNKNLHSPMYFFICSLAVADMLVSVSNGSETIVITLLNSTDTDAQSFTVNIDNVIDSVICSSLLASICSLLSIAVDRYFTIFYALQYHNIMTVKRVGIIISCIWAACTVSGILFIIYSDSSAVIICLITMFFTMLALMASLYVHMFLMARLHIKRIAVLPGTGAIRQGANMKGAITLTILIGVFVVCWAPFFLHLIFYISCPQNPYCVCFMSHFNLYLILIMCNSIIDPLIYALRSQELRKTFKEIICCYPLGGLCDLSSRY
Fructose-bisphosphate aldolase, sequence (P9WQA3 whole entry): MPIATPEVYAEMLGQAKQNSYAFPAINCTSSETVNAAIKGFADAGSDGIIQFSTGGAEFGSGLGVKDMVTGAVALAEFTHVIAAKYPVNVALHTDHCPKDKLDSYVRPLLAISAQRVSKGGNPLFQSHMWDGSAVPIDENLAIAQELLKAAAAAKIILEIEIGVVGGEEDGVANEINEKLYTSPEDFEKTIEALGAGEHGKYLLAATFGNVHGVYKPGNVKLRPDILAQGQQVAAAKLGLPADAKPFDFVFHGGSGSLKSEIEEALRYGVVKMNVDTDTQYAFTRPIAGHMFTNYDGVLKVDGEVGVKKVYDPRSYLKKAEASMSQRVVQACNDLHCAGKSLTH
Nuclear receptor subfamily 5 group A member 2, sequence (O00482 whole entry): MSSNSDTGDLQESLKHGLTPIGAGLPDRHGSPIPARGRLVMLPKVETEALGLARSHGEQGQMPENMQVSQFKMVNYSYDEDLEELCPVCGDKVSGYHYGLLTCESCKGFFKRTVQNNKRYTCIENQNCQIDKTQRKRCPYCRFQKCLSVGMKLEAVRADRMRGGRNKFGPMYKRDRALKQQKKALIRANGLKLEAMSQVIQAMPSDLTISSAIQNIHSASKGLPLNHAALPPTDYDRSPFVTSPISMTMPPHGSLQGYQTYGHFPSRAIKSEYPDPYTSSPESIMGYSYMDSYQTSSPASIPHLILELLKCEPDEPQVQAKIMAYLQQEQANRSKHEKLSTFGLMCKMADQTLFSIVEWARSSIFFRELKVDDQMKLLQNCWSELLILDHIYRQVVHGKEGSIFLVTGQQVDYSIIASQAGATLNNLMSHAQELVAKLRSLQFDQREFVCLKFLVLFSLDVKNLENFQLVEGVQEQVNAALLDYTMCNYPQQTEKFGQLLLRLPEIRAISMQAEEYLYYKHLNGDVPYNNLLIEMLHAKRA
Steroidogenic factor 1, sequence (Q13285 whole entry): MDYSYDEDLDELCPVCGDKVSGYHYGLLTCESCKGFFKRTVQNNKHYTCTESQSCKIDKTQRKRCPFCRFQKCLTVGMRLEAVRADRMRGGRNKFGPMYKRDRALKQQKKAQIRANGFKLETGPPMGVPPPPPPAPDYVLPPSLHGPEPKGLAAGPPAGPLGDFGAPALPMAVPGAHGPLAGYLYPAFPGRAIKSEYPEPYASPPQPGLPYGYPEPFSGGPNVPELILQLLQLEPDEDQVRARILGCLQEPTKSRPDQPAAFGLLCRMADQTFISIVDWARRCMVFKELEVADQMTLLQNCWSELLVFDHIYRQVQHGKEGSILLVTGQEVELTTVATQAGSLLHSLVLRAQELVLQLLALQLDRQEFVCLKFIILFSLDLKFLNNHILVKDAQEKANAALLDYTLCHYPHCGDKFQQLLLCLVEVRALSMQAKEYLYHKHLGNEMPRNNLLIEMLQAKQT
DNA repair and recombination protein RAD54-like, sequence (Q92698 whole entry): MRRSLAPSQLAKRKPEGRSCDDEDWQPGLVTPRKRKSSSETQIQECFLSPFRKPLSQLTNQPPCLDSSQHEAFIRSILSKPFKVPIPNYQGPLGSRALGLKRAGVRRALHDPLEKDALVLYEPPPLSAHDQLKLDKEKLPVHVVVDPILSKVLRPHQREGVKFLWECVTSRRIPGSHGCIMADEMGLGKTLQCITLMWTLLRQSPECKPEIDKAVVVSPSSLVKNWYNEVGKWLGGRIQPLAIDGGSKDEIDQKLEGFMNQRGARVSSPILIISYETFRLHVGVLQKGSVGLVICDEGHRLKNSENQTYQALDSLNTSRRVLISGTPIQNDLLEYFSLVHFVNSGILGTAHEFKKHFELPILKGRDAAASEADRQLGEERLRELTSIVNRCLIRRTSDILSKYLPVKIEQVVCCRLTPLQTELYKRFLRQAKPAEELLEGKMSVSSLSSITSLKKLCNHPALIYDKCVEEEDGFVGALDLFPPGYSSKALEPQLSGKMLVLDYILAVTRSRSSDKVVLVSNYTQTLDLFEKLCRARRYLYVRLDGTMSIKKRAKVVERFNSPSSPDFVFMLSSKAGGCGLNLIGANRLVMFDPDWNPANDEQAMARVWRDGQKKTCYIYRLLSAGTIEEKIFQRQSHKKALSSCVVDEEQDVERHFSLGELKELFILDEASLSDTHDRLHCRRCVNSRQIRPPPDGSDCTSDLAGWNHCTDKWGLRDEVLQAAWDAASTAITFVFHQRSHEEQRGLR
Benomyl/methotrexate resistance protein, sequence (P28873 whole entry): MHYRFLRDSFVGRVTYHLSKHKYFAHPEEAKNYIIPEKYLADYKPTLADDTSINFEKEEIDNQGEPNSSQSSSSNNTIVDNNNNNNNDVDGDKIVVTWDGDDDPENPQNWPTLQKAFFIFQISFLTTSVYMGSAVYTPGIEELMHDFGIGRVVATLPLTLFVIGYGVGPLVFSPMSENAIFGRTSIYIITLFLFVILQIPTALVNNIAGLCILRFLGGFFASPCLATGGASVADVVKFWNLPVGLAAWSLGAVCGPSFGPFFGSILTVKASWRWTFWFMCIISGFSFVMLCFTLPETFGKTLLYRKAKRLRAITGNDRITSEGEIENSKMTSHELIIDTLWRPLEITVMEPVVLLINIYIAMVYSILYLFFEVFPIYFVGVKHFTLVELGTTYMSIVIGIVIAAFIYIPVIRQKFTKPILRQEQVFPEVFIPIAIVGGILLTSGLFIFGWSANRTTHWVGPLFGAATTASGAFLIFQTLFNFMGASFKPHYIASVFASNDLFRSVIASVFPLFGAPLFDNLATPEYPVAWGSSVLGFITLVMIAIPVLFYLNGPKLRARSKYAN
Beta Lactamase, sequence (Q932Y6 whole entry): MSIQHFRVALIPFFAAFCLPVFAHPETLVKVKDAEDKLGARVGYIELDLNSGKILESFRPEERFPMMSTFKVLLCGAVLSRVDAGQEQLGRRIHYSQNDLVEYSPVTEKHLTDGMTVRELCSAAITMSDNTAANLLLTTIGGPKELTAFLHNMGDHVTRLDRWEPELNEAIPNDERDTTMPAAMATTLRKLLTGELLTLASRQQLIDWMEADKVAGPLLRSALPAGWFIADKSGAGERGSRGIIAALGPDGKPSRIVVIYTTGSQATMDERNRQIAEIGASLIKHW

## COc1ccc(CCNC(=O)COC(=O)C23CC4CC(CC(Br)(C4)C2)C3)cc1
[1]
  IC50: 35.9 µM (inactive)
[2]
  IC50: 16.6 µM (inactive)
[3]
  IC50: 4.45 µM (active)

## Cc1nn(C)cc1-c1cc(C(=O)O)c2ccccc2n1
[4]
  IC50: 1.91 µM (active)

## O=C(Nc1ccc(S(=O)(=O)Nc2ccccn2)cc1)c1ccc(Cl)cc1Cl
[5]
  IC50: 3.81 µM (active)
[6]
  IC50: 12.8 µM (active)
[7]
  IC50: 4.17 µM (active)

## COc1cccc(-c2cnc3c(NC(C)=O)cc(-c4ccsc4)cn23)c1
[8]
  EC50: 26.2 µM (inactive)

## COc1ccc(NC(=O)c2ccc(-c3ccc(-c4noc(C)n4)cc3C)cc2)cc1N1CCN(C)CC1
[9]
  AC50: 14.5 µM (active)
[10]
  AC50: 7.71 µM (active)
[11]
  AC50: 79 µM (active)
[12]
  AC50: 27.6 µM (active)
[13]
  AC50: 8.17 µM (active)
[14]
  IC50: > 20 µM (inactive)
[15]
  AC50: 14.4 µM (active)
[16]
  AC50: 8.08 µM (active)
[17]
  AC50: 22.7 µM (active)

## CCc1cc(CNC(=O)c2ccc(OC)c(OC3CCN(C(C)C)CC3)c2)on1
[5]
  IC50: 0.597 µM (active)
[6]
  IC50: 0.0189 µM (active)
[7]
  IC50: 0.316 µM (active)

## O=C(COC(=O)c1cccs1)Nc1nnc(-c2ccccc2)o1
[18]
  AC50: 102 µM (active)

## CC(=O)c1cn(Cc2ccccc2F)c2ccccc12
[19]
  IC50: > 20 µM (inactive)
[20]
  EC50: 2.96 µM (active)
[21]
  AC50: 2.96 µM (active)
[22]
  AC50: 9.56 µM (active)
[23]
  IC50: 0.491 µM (active)
[24]
  IC50: > 20 µM (inactive)
[25]
  IC50: 5 µM (active)
[26]
  AC50: 3.35 µM (active)
[27]
  EC50: 4.05 µM (active)

## COc1ccc(/C=N/NC(=O)c2ccc(COc3ccccc3Cl)o2)c(OC)c1C
[8]
  EC50: > 89.2 µM (inactive)

## Cc1ccc(SCc2c(C(=O)N/N=C/c3ccoc3)nnn2-c2nonc2N)cc1
[28]
  AC50: > 100 µM (inactive)

## COc1cccc(NC(=O)Cn2nnc(-c3ccccc3N)n2)c1
[28]
  AC50: 66.6 µM (active)

## CCN(CC)C(=O)c1sc2nc(-c3ccccn3)nc(O)c2c1C
[18]
  AC50: 77.1 µM (active)

## O=C1Cc2ccccc2C(=O)N1c1ccccc1
[29]
  IC50: 3.97 µM (active)
[30]
  IC50: 12.9 µM (active)
[31]
  IC50: > 49.7 µM (inactive)
[32]
  IC50: > 100 µM (inactive)

## COC(=O)[C@]12C[C@H](CC(=O)NCCc3ccccc3OC)C(=O)N(Cc3ccc4c(c3)OCO4)C1=C[C@H](COCc1ccccc1)O[C@@H]2C
[33]
  EC50: > 29.9 µM (inactive)
[34]
  IC50: > 29.9 µM (inactive)

## O=C1CCC(=O)c2ccc3c4c(ccc1c24)CC3
[4]
  IC50: 1.56 µM (active)

## O=C(Nc1ccc(S(=O)(=O)N2CCOCC2)cc1)c1cccc([N+](=O)[O-])c1
[1]
  IC50: 35.9 µM (inactive)
[2]
  IC50: 12 µM (inactive)
[3]
  IC50: 2.2 µM (active)

## C#CC[N+](C)(C)CCCCCCCCCCCC
[35]
  EC50: 2.9 µM (active)
[36]
  AC50: 4.61 µM (active)
[23]
  IC50: 0.279 µM (active)
[37]
  IC50: > 80 µM (inactive)
[38]
  EC50: 0.312 µM (active)
[39]
  EC50: > 160 µM (inconclusive)
[40]
  EC50: 3.33 µM (active)
